From paper PMC3225806 (Chemistry & biology, 2011)

Test system: full-length JFH-1 replicon
Assay: replicon model, intracellular HCV RNA by RT-qPCR
Format: cell-based, hepatitis C virus in Huh-7 cells
Conditions: peptides 20 µM, controls 1 µM, 48 hours

SMILES | intracellular HCV RNA levels in replicon cells
COc1ccc2c(O[C@@H]3C[C@H]4C(=O)N[C@]5(C(=O)O)C[C@H]5/C=C\CCCCC[C@H](NC(=O)OC5CCCC5)C(=O)N4C3)cc(-c3csc(NC(C)C)n3)nc2c1 [BILN2061] | efficiently reduced HCV RNA levels
C[C@@]1(O)[C@H](O)[C@@H](CO)O[C@H]1n1ccc(N)nc1=O [Peptide 2-CMC, 2’-C-methylcytidine] | efficiently reduced HCV RNA levels
